# Patent US20010031729A1, “Composition comprising carbohydrate and peptide material and its use as an energy supplement after or during physical exercise or as a metabolic nutrient for oral consumption” (priority 1999, published 2001)
# Tested on: healthy, non-obese male subjects after an overnight fast
# Assay: First study: insulinotropic effect of test drinks co-ingested with carbohydrate, plasma insulin by radio-immuno-assay
# Assay type: in vivo, human
# Settings: 1st study
# Excerpt: In studies presented below the effects of intact casein, several protein hydrolysates and protein hydrolysate in combination wit specific amino acids have been examined. The sodium casein used in this study is commercially available from DMV-International. Glucose and maltodextrin were obtained from AVEBE (the Netherlands) and crystalline amino acids from BUFA (the Netherlands). In the presented study the following commercially available protein hydrolysates from Quest-International have been used: Hyprol® 3301 (whey protein hydrolysate, average peptide chain length of 4.1), Hyprol® 4107 (wheat gluten protein hydrolysate, average peptide chain length of 12.2) and Hyprol® 7102 (pea protein hydrolysate, average peptide chain length of 6.4). The insulin responses in blood plasma was analysed by radio-immuno-assay (Insulin RIA 100 kit, Pharmacia, Sweden),
# In three studies the efficiency of an amino acid and/or protein (hydrolysate) mixture in a carbohydrate containing drink with respect to their insulinotropic effect in human subjects was examined. […]
# Eight healthy, non-obese male subjects (age 21±0.4, weight 73.9±2.2 kg, height 186±2 cm, BMI 21.4±0.7 kg·m^−2) after an overnight fast, were tested for 2 hours on 10 occasions in which different beverage compositions were ingested. […] The insulin response is expressed as area under the curve during the second hour. […]
smiles,measurement,setting,value
NC(=O)CC[C@H](N)C(=O)O [glutamine],Influence of addition of free glutamine on plasma glutamine concentrations,,hardly influenced
same,"Effect on the insulin response of addition to the mixture of arginine, leucine and phenylalanine",healthy men,no effect
